Source: patent EP0791072B1, “PROCESS FOR DETERMINING THE ACTIVITY OF SPECIFIC PHOSPHOTYROSINE PHOSPHATASES AND SPECIFIC EFFECTORS THEREOF IN INTACT CELLS” (Max-Planck-Gesellschaft zur Förderung der Wissenschaften …, priority 1994, dated 1996)

How the values were obtained:
Format in all cases: cell-based, Maus
[1] = system: PDGF-Rezeptor-gerichtete(n) PTPase(n)
[2] = system: PDGF-Rezeptor PTK; assay: Inhibition of PDGF-induced receptor autophosphorylation in intact Swiss 3T3 cells (anti-phosphotyrosine immunoblot); conditions: AG 1296 50 µM, 2 min preincubation, then PDGF-BB 100 ng/ml for 5 min
Source text: (§1) Swiss 3T3 Fibroblasten (Maus) exprimieren PDGFα und PDGFβ-Rezeptoren auf der Zelloberfläche (Hosang et al. (1989)). Die Stimulation der Zellen mit PDGF führt zu einer raschen Autophosphorylierung dieser Rezeptoren an Tyrosinresten. […] Die autophosphorylierten Rezeptoren werden durch PDGF-Rezeptor-gerichtete PTPase(n) rasch dephosphoryliert (Bohmer et al. (1993)). Die Identität der zellulären PTPasen, die diese Reaktion katalysieren, ist nicht bekannt. Ein hochspezifischer Inhibitor für die PDGF-Rezeptor PTK (AG 1296) hemmt deren Aktivität bereits nach sehr kurzer Behandlung der Zellen (2 min) vollständig (Abb. 1). In isolierten Membranen von Swiss 3T3-Zellen beeinflußt der Inhibitor die in den Membranen enthaltenen PTPase(n) für den autophosphorylierten PDGF-Rezeptor in ihrer Aktivität nicht (Abb. 2). Wird der Inhibitor Zellen nach Aktivierung der PDGF-Rezeptor PTK zugesetzt, kann die Dephosphorylierung des PDGF-Rezeptors zeitabhängig verfolgt werden (Abb. 3).

[3] = system: PDGF-Rezeptor; assay: Time course of PDGF receptor phosphotyrosine content in intact Swiss 3T3 cells, PTK inhibitor added after PDGF stimulation; conditions: AG 1296 50 µM added after 5 min PDGF stimulation, over incubation time
Source text: as §1
Swiss 3T3-Zellen wurden in serumfreiem Medium mit PDGF (Abb. 3, Bahn 2-6) oder dem entsprechenden Lösungsmittel (Abb. 3, Bahn 1) behandelt. Nach 5-minütiger Stimulation wurde AG 1296 (50 µM, Abb. 3 B) oder entsprechendes Lösungsmittel (DMSO, Abb. 3 A) zugesetzt. […] Diese Abnahme wird durch die Aktivität der PDGF Rezeptor-gerichteten PTPase in den intakten Zellen bewirkt. Eine graphische Auswertung ist in Abb. 4 gezeigt. […]

## CNc1ccc2oc(C[C@H]3O[C@@]4(CC[C@H]3C)O[C@H]([C@H](C)C(=O)c3ccc[nH]3)[C@H](C)C[C@H]4C)nc2c1C(=O)O [A 23187, 5-(Methylamino)-2-[[3,9,11-trimethyl-8-[1-methyl-2-oxo-(1H-pyrrol-2-yl)ethyl]-1,7-dioxaspiro[5,5]undec-2-yl]methyl]-4-benoxazolcarbonsäure]
[1]
  Relative PDGF Rezeptor-gerichtete PTPase-Aktivität (% der Kontrolle): 161 % der Kontrolle

## COc1cc2ncc(-c3ccccc3)nc2cc1OC [AG 1296]
[2]
  PDGF-induzierte Autophosphorylierung des Rezeptors: vollständig unterdrückt
[3]
  Phosphotyrosingehalt der PDGF-Rezeptoren: kontinuierlich ab
